Source: ChEMBL document CHEMBL3880421, “Indazole compounds and pharmaceutical compositions for inhibiting protein kinases, and methods for their use” (2003)

Tests used:
[1] = Antiproliferative activity against VEGF-stimulated HUVEC cells assessed as reduction in cell viability at 2 nM preincubated for 1 hr followed by addition of VEGF measured after 72 hrs by MTT assay; assay type: functional; details: Homo sapiens
[2] = Antiproliferative activity against VEGF-stimulated HUVEC cells assessed as reduction in cell viability at 0.5 nM preincubated for 1 hr followed by addition of VEGF measured after 72 hrs by MTT assay; assay type: functional; details: Homo sapiens

SMILES	inhibition at 0.002 µM [1]	inhibition at 0.0005 µM [2]
Cn1cncc1CCNC(=O)c1ccccc1Nc1ccc2c(/C=C/c3ccccn3)n[nH]c2c1	0%	-6%
O=C(NN1CCCC1)c1ccccc1Nc1ccc2c(/C=C/c3ccccn3)n[nH]c2c1	23%	17%
CCCC(CCC)NC(=O)c1ccccc1Nc1ccc2c(/C=C/c3ccccn3)n[nH]c2c1	52%	1%
CC(C)NC(=O)c1ccccc1Nc1ccc2c(/C=C/c3ccccn3)n[nH]c2c1	43%	22%
O=C(NCC1CC1)c1ccccc1Nc1ccc2c(/C=C/c3ccccn3)n[nH]c2c1	53 to 69%	25 to 35%
O=C(NCCS(=O)(=O)O)c1ccccc1Nc1ccc2c(/C=C/c3ccccn3)n[nH]c2c1	21%	16%
O=C(NC1OCCO1)c1ccccc1Nc1ccc2c(/C=C/c3ccccn3)n[nH]c2c1	63%	35%
O=C(NN1CCOCC1)c1ccccc1Nc1ccc2c(/C=C/c3ccccn3)n[nH]c2c1	53%	1%
CC(C)C(CO)NC(=O)c1ccccc1Nc1ccc2c(/C=C/c3ccccn3)n[nH]c2c1 (stereo not given)	-5%	21%
CCN1CC(NC(=O)c2ccccc2Nc2ccc3c(/C=C/c4ccccn4)n[nH]c3c2)CN1CC	-19%	2%
O=C(NCC1CCCO1)c1ccccc1Nc1ccc2c(/C=C/c3ccccn3)n[nH]c2c1 (stereo not given)	44%	23%
O=C(NCCCCO)c1ccccc1Nc1ccc2c(/C=C/c3ccccn3)n[nH]c2c1	40%	35%
NC(=O)[C@H]1CCCC[C@H]1NC(=O)c1ccccc1Nc1ccc2c(/C=C/c3ccccn3)n[nH]c2c1	39%	21%
CCCCCCCNC(=O)c1ccccc1Nc1ccc2c(/C=C/c3ccccn3)n[nH]c2c1	34%	9%
CN(C)CCCCNC(=O)c1ccccc1Nc1ccc2c(/C=C/c3ccccn3)n[nH]c2c1	16%	23%
CC1CCCC(NC(=O)c2ccccc2Nc2ccc3c(/C=C/c4ccccn4)n[nH]c3c2)C1 (stereo not given)	59%	69%
O=C1CSC(NC(=O)c2ccccc2Nc2ccc3c(/C=C/c4ccccn4)n[nH]c3c2)=N1	-9%	9%
NC(=O)CNC(=O)c1ccccc1Nc1ccc2c(/C=C/c3ccccn3)n[nH]c2c1	4%	6%
COC(=O)NNC(=O)c1ccccc1Nc1ccc2c(/C=C/c3ccccn3)n[nH]c2c1	21%	8%
CSCCCNC(=O)c1ccccc1Nc1ccc2c(/C=C/c3ccccn3)n[nH]c2c1	100%	44%
O=C(NNCC(F)(F)F)c1ccccc1Nc1ccc2c(/C=C/c3ccccn3)n[nH]c2c1	42%	16%
O=C(NCS(=O)(=O)O)c1ccccc1Nc1ccc2c(/C=C/c3ccccn3)n[nH]c2c1	-3%	2%
O=C(NC1CCCCC1)c1ccccc1Nc1ccc2c(/C=C/c3ccccn3)n[nH]c2c1	76%	12%
O=C(NCCCn1ccnc1)c1ccccc1Nc1ccc2c(/C=C/c3ccccn3)n[nH]c2c1	23%	23%
CC1CCC(NC(=O)c2ccccc2Nc2ccc3c(/C=C/c4ccccn4)n[nH]c3c2)CC1 (stereo not given)	42%	-11%

SMILES	inhibition at 0.002 µM [1]	inhibition at 0.0005 µM [2]
C[N+]12CC[C@@H]1C(NC(=O)c1ccccc1Nc1ccc3c(/C=C/c4ccccn4)n[nH]c3c1)C2 (stereo not given in full)	-9%	15%
CCC(CO)NC(=O)c1ccccc1Nc1ccc2c(/C=C/c3ccccn3)n[nH]c2c1 (stereo not given)	23%	22%
O=C(Nn1cnnc1)c1ccccc1Nc1ccc2c(/C=C/c3ccccn3)n[nH]c2c1	13%	17%
Cc1cc(NC(=O)c2ccccc2Nc2ccc3c(/C=C/c4ccccn4)n[nH]c3c2)no1	14%	28%
O=C(Nc1nncs1)c1ccccc1Nc1ccc2c(/C=C/c3ccccn3)n[nH]c2c1	28%	44%
O=C(O)CCNC(=O)c1ccccc1Nc1ccc2c(/C=C/c3ccccn3)n[nH]c2c1	20%	4%
O=C(NCCc1ccccn1)c1ccccc1Nc1ccc2c(/C=C/c3ccccn3)n[nH]c2c1	91%	49%
Nc1ccc(CCNC(=O)c2ccccc2Nc2ccc3c(/C=C/c4ccccn4)n[nH]c3c2)cc1	31%	32%
CCCCN(CC)CCNC(=O)c1ccccc1Nc1ccc2c(/C=C/c3ccccn3)n[nH]c2c1	6%	2%
O=C(NCCc1cccnc1)c1ccccc1Nc1ccc2c(/C=C/c3ccccn3)n[nH]c2c1	61%	23%
CN(C)CC(C)(C)CNC(=O)c1ccccc1Nc1ccc2c(/C=C/c3ccccn3)n[nH]c2c1	5%	38%
CONC(=O)c1ccccc1Nc1ccc2c(/C=C/c3ccccn3)n[nH]c2c1	99%	62%
CCCCCC(C)NC(=O)c1ccccc1Nc1ccc2c(/C=C/c3ccccn3)n[nH]c2c1 (stereo not given)	14%	-1%
Nc1nnc(NC(=O)c2ccccc2Nc2ccc3c(/C=C/c4ccccn4)n[nH]c3c2)[nH]1	41%	-6%
O=C(NO)c1ccccc1Nc1ccc2c(/C=C/c3ccccn3)n[nH]c2c1	25%	7%
O=C(NCCOc1ccccc1)c1ccccc1Nc1ccc2c(/C=C/c3ccccn3)n[nH]c2c1	73%	16%
O=C(NCCN1CCCCC1)c1ccccc1Nc1ccc2c(/C=C/c3ccccn3)n[nH]c2c1	19%	5%
Cc1ccc(CNC(=O)c2ccccc2Nc2ccc3c(/C=C/c4ccccn4)n[nH]c3c2)o1	96%	56%
CCOCCCNC(=O)c1ccccc1Nc1ccc2c(/C=C/c3ccccn3)n[nH]c2c1	97%	44%
CC(C)CNC(=O)c1ccccc1Nc1ccc2c(/C=C/c3ccccn3)n[nH]c2c1	29 to 36%	4 to 31%
CN1CCCC1CCNC(=O)c1ccccc1Nc1ccc2c(/C=C/c3ccccn3)n[nH]c2c1 (stereo not given)	23%	30%
O=C(NCCN1CCNC1=O)c1ccccc1Nc1ccc2c(/C=C/c3ccccn3)n[nH]c2c1	1%	5%
CC(CNC(=O)c1ccccc1Nc1ccc2c(/C=C/c3ccccn3)n[nH]c2c1)N(C)C (stereo not given)	1%	-9%
CN1CCN(NC(=O)c2ccccc2Nc2ccc3c(/C=C/c4ccccn4)n[nH]c3c2)CC1	-1%	19 to 38%
O=C(NC1CCC1)c1ccccc1Nc1ccc2c(/C=C/c3ccccn3)n[nH]c2c1	80%	42%
